Experimental data taken from patent US12302908B2, “Insect neuropeptides 4” (Solasta Bio Limited, priority 2023, dated 2025).

Experiments:
Plutella xylostella [1] = experiment: Leaf dip assay 1 (IRAC susceptibility test method 018, performed by FERA), mortality; format: in vivo; conditions: unformulated peptide at 2×10^−4 M; 2nd/3rd instar larvae on dipped Chinese cabbage leaf discs; mortality assessed after 120 hours; FIG. 4
Description: The assay was carried out based on IRAC susceptibility test method 018 by a contract research organization, FERA Science Ltd. Test insects Larvae (2nd/3rd instar) were sourced from a laboratory culture of P. xylostella. The culture has been maintained in a controlled environment (CE) room with conditions of 25° C. and 16:8 lighting regime on Chinese cabbage plants. Chinese cabbage leaves were used in the bioassays. A CE room set at 25° C. and 60% r.h. with a 16 hour light: 8 hours dark lighting regime, was used. Leaf discs (approximately 35 mm in diameter) were cut from fully expanded Chinese cabbage leaves. Each leaf disc was dipped in a separate peptide solution for 10 seconds with gentle agitation and placed on a damp filter paper (underside surface uppermost). There were ten replicates for each treatment and control, with five leaf discs per replicate. The treated discs were then put onto damp filter paper in the base of a Petri dishes (90 mm in diameter, 15 mm high) (underside surface uppermost). Five larvae were then transferred onto the treated leaf discs. The dishes were placed in the CE room and mortality was assessed after 120 hours. Leaf dip assays were performed with SB—P-81, and compared to a negative control vehicle and a current commercial insecticide Gazelle SG (shown as Acetamiprid). […]

Plutella xylostella [2] = experiment: Leaf dip assay 2 (IRAC susceptibility test method 019), mortality; format: in vivo; conditions: unformulated peptide at 1×10^−4 M; dipped leaf disc on agar; after 96 hours; FIG. 6
Description: The assay was carried out based on IRAC susceptibility test method 019 (irac-online.org/methods/aphids-adultnymphs/). Fill a small 4 cm wide 3 cm high dish with a 1% agar treatment solution of the active chemical or control (ensuring 1 cm gap between the agar and the lid) and leave to set. Dip a 2.5 cm leaf disc into 3 ml of treatment solution allowing the treatment to coat the leaf. Leave the disc to dry for 1 hour and place onto the set agar. Place insects (Plutella xylostella) onto each of the leaf discs. Each unit is sealed with a close-fitting, ventilated lid. Place the agar dishes in a small plastic tray lined with moist tissue paper and ensure the water trays in the bottom of the incubator are filled with clean water and place within the incubator. An assessment of mortality is made at 72, 96 and 120 hours. Leaf dip assays were performed with SB—P-81, and compared to a negative control vehicle and a current commercial insecticide Chlorantraniliprole. The activity of SB—P-81 is shown in FIG. 6; SB—P-81 has good activity whilst being eco-friendly and targeted to specific pests unlike broad spectrum chemical insecticides such as Chlorantraniliprole.

## [Hy]-GGSMTFSPRL-[NH2] (H-GGSMTFSPRL-NH2) [SB—P-81, pyrokinin peptide according to the invention]
Plutella xylostella [1]
  activity against Plutella xylostella (mortality), leaf dip assay 1: good activity
Plutella xylostella [2]
  activity against Plutella xylostella (mortality), leaf dip assay 2: good activity
